Active and inactive are the calls of the source. How the calls were made is not given here.

This data set concerns CCRIS mutagenicity, Ames/micronucleus/aberration tests. Nature of the data set: CCRIS mutagenicity studies.
[1] abbreviates: Test System: AMES SALMONELLA TYPHIMURIUM, Strain/Indicator: TA98, Metabolic Activation: NONE, Method: STANDARD PLATE.
Setting [2] is: Test System: AMES SALMONELLA TYPHIMURIUM, Strain/Indicator: TA100, Metabolic Activation: NONE, Method: STANDARD PLATE.
The mark [3] stands for this setting: Test System: AMES SALMONELLA TYPHIMURIUM, Strain/Indicator: TA1535, Metabolic Activation: NONE, Method: STANDARD PLATE.
Setting [4] is: Test System: AMES SALMONELLA TYPHIMURIUM, Strain/Indicator: TA1537, Metabolic Activation: NONE, Method: STANDARD PLATE.
Where [5] appears, read: Test System: AMES SALMONELLA TYPHIMURIUM, Strain/Indicator: TA98, Metabolic Activation: NONE, Method: PREINCUBATION
Where [6] appears, read: Test System: AMES SALMONELLA TYPHIMURIUM, Strain/Indicator: TA100, Metabolic Activation: NONE, Method: PREINCUBATION
The mark [7] stands for this setting: Test System: AMES SALMONELLA TYPHIMURIUM, Strain/Indicator: TA1535, Metabolic Activation: NONE, Method: PREINCUBATION
The mark [8] stands for this setting: Test System: AMES SALMONELLA TYPHIMURIUM, Strain/Indicator: TA1537, Metabolic Activation: NONE, Method: PREINCUBATION
The mark [9] stands for this setting: Test System: AMES SALMONELLA TYPHIMURIUM, Strain/Indicator: TA98, Metabolic Activation: RAT, LIVER, S-9, AROCLOR 1254, Method: STANDARD PLATE.
Setting [10] is: Test System: AMES SALMONELLA TYPHIMURIUM, Strain/Indicator: TA100, Metabolic Activation: RAT, LIVER, S-9, AROCLOR 1254, Method: STANDARD PLATE.
The mark [11] stands for this setting: Test System: AMES SALMONELLA TYPHIMURIUM, Strain/Indicator: TA1535, Metabolic Activation: RAT, LIVER, S-9, AROCLOR 1254, Method: STANDARD PLATE.
Where [12] appears, read: Test System: AMES SALMONELLA TYPHIMURIUM, Strain/Indicator: TA1537, Metabolic Activation: RAT, LIVER, S-9, AROCLOR 1254, Method: STANDARD PLATE.

Consider `O=c1ccc2cc(O[C@@H]3O[C@H](CO)[C@@H](O)[C@H](O)[C@H]3O)c(O)cc2o1`, for which the mutagenic call reads like this: (Test System: AMES SALMONELLA TYPHIMURIUM, Strain/Indicator: TA92, Metabolic Activation: NONE, Method: SPOT TEST) “inactive; negative”; (Test System: AMES SALMONELLA TYPHIMURIUM, Strain/Indicator: TA92, Metabolic Activation: RAT, LIVER, S-9, AROCLOR 1254, Method: SPOT TEST) “inactive; negative”; (Test System: AMES SALMONELLA TYPHIMURIUM, Strain/Indicator: TA94, Metabolic Activation: NONE, Method: SPOT TEST) “inactive; negative”; (Test System: AMES SALMONELLA TYPHIMURIUM, Strain/Indicator: TA94, Metabolic Activation: RAT, LIVER, S-9, AROCLOR 1254, Method: SPOT TEST) “inactive; negative”; (Test System: AMES SALMONELLA TYPHIMURIUM, Strain/Indicator: TA97, Metabolic Activation: NONE, Method: SPOT TEST) “inactive; negative”; (Test System: AMES SALMONELLA TYPHIMURIUM, Strain/Indicator: TA97, Metabolic Activation: RAT, LIVER, S-9, AROCLOR 1254, Method: SPOT TEST) “inactive; negative”. The mutagenic call runs as follows: (Test System: AMES SALMONELLA TYPHIMURIUM, Strain/Indicator: TA98, Metabolic Activation: NONE, Method: SPOT TEST) “inactive; negative”; (Test System: AMES SALMONELLA TYPHIMURIUM, Strain/Indicator: TA98, Metabolic Activation: RAT, LIVER, S-9, AROCLOR 1254, Method: SPOT TEST) “inactive; negative”; (Test System: AMES SALMONELLA TYPHIMURIUM, Strain/Indicator: TA100, Metabolic Activation: NONE, Method: SPOT TEST) “inactive; negative”; (Test System: AMES SALMONELLA TYPHIMURIUM, Strain/Indicator: TA100, Metabolic Activation: RAT, LIVER, S-9, AROCLOR 1254, Method: SPOT TEST) “inactive; negative”; (Test System: AMES SALMONELLA TYPHIMURIUM, Strain/Indicator: TA102, Metabolic Activation: NONE, Method: SPOT TEST) “inactive; negative”; (Test System: AMES SALMONELLA TYPHIMURIUM, Strain/Indicator: TA102, Metabolic Activation: RAT, LIVER, S-9, AROCLOR 1254, Method: SPOT TEST) “inactive; negative”.
In the case of `O=C1NS(=O)(=O)c2ccccc21`, the mutagenic call (Test System: AMES SALMONELLA TYPHIMURIUM, Strain/Indicator: TA97A, Metabolic Activation: NONE, Method: PREINCUBATION) was “inactive; negative”; the mutagenic call (Test System: AMES SALMONELLA TYPHIMURIUM, Strain/Indicator: TA97A, Metabolic Activation: RAT, LIVER, S-9, AROCLOR 1254, Method: PREINCUBATION) was “inactive; negative”; the mutagenic call (Test System: AMES SALMONELLA TYPHIMURIUM, Strain/Indicator: TA102, Metabolic Activation: NONE, Method: PREINCUBATION) was “inactive; negative”; the mutagenic call (Test System: AMES SALMONELLA TYPHIMURIUM, Strain/Indicator: TA102, Metabolic Activation: RAT, LIVER, S-9, AROCLOR 1254, Method: PREINCUBATION) is “inactive; negative”.
With `Cc1ccc(C(O)(P(=O)(O)O)P(=O)(O)O)cc1N(CCCl)CCCl`, the mutagenic call runs as follows: under setting [1], “inactive; negative”; (Test System: AMES SALMONELLA TYPHIMURIUM, Strain/Indicator: TA98, Metabolic Activation: RAT, LIVER, S-9, AROCLOR, Method: STANDARD PLATE) “inactive; negative”; under setting [2], “inactive; negative”; (Test System: AMES SALMONELLA TYPHIMURIUM, Strain/Indicator: TA100, Metabolic Activation: RAT, LIVER, S-9, AROCLOR, Method: STANDARD PLATE) “inactive; negative”; under setting [3], “inactive; negative”; (Test System: AMES SALMONELLA TYPHIMURIUM, Strain/Indicator: TA1535, Metabolic Activation: RAT, LIVER, S-9, AROCLOR, Method: STANDARD PLATE) “active; positive”. The mutagenic call is, setting by setting: under setting [4], “inactive; negative”; (Test System: AMES SALMONELLA TYPHIMURIUM, Strain/Indicator: TA1537, Metabolic Activation: RAT, LIVER, S-9, AROCLOR, Method: STANDARD PLATE) “inactive; negative”; (Test System: AMES SALMONELLA TYPHIMURIUM, Strain/Indicator: TA1538, Metabolic Activation: NONE, Method: STANDARD PLATE) “inactive; negative”; (Test System: AMES SALMONELLA TYPHIMURIUM, Strain/Indicator: TA1538, Metabolic Activation: RAT, LIVER, S-9, AROCLOR, Method: STANDARD PLATE) “inactive; negative”.
For the molecule `CC(O)C(C)O` (centres undefined), the mutagenic call reads like this: under setting [5], “inactive; negative”; under setting [6], “inactive; negative”; under setting [7], “inactive; negative”; under setting [8], “inactive; negative”; (Test System: AMES SALMONELLA TYPHIMURIUM, Strain/Indicator: TA1538, Metabolic Activation: NONE, Method: PREINCUBATION) “inactive; negative”; (Test System: E. COLI, Strain/Indicator: WP2 UVRA, Metabolic Activation: NONE, Method: PREINCUBATION) “inactive; negative”.
With `C1=Cc2cc3ccccc3c3cccc1c23`, the mutagenic call is, setting by setting: under setting [1], “inactive; negative”; under setting [9], “active; positive”; under setting [2], “inactive; negative”; under setting [10], “active; positive”.
For `c1ccc(Oc2ccccc2)cc1`, the mutagenic call is “inactive; negative” (Test System: AMES SALMONELLA TYPHIMURIUM, Strain/Indicator: TA98, Metabolic Activation: HAMSTER, LIVER, S-9, AROCLOR 1254, Method: PREINCUBATION); “inactive; negative” under setting [5]; “inactive; negative” (Test System: AMES SALMONELLA TYPHIMURIUM, Strain/Indicator: TA98, Metabolic Activation: RAT, LIVER, S-9, AROCLOR 1254, Method: PREINCUBATION); “inactive; negative” (Test System: AMES SALMONELLA TYPHIMURIUM, Strain/Indicator: TA100, Metabolic Activation: HAMSTER, LIVER, S-9, AROCLOR 1254, Method: PREINCUBATION); “inactive; negative” under setting [6]; “inactive; negative” (Test System: AMES SALMONELLA TYPHIMURIUM, Strain/Indicator: TA100, Metabolic Activation: RAT, LIVER, S-9, AROCLOR 1254, Method: PREINCUBATION). For the same molecule, the mutagenic call reads like this: (Test System: AMES SALMONELLA TYPHIMURIUM, Strain/Indicator: TA1535, Metabolic Activation: HAMSTER, LIVER, S-9, AROCLOR 1254, Method: PREINCUBATION) “inactive; negative”; under setting [7], “inactive; negative”; (Test System: AMES SALMONELLA TYPHIMURIUM, Strain/Indicator: TA1535, Metabolic Activation: RAT, LIVER, S-9, AROCLOR 1254, Method: PREINCUBATION) “inactive; negative”; (Test System: AMES SALMONELLA TYPHIMURIUM, Strain/Indicator: TA1537, Metabolic Activation: HAMSTER, LIVER, S-9, AROCLOR 1254, Method: PREINCUBATION) “inactive; negative”; under setting [8], “inactive; negative”; (Test System: AMES SALMONELLA TYPHIMURIUM, Strain/Indicator: TA1537, Metabolic Activation: RAT, LIVER, S-9, AROCLOR 1254, Method: PREINCUBATION) “inactive; negative”.
With `O=C(OCc1ccccc1)c1cccc2cccnc12`, the mutagenic call is “inactive; negative” under setting [1]; “inactive; negative” under setting [9]; “inactive; negative” under setting [2]; “inactive; negative” under setting [10]; “inactive; negative” under setting [3]; “inactive; negative” under setting [11]. Moreover, the mutagenic call runs as follows: under setting [4], “inactive; negative”; under setting [12], “inactive; negative”.
Consider `O=S(=O)(Nc1ccc(Cl)cc1)c1cccc2cccnc12`, for which the mutagenic call reads like this: under setting [1], “inactive; negative”; under setting [9], “inactive; negative”; under setting [2], “inactive; negative”; under setting [10], “inactive; negative”; under setting [3], “inactive; negative”; under setting [11], “inactive; negative”. For the same molecule, the mutagenic call under setting [4] is “inactive; negative” and the mutagenic call under setting [12] is “inactive; negative”.

The record behind these values is PubChem BioAssay AID1259407 (Chemical Carcinogenesis Research Information System (CCRIS), 2018).
